The target of the experiment is T1, Human HDAC6 (Homo sapiens, UniProt Q9UBN7).
T1 construct: Full length with N-terminal GST tag, MW=159 kDa; GST (N); purchased BioMol SE-508; host or cells: Sf9 cells, baculovirus
T1 sequence (Q9UBN7 1-1215): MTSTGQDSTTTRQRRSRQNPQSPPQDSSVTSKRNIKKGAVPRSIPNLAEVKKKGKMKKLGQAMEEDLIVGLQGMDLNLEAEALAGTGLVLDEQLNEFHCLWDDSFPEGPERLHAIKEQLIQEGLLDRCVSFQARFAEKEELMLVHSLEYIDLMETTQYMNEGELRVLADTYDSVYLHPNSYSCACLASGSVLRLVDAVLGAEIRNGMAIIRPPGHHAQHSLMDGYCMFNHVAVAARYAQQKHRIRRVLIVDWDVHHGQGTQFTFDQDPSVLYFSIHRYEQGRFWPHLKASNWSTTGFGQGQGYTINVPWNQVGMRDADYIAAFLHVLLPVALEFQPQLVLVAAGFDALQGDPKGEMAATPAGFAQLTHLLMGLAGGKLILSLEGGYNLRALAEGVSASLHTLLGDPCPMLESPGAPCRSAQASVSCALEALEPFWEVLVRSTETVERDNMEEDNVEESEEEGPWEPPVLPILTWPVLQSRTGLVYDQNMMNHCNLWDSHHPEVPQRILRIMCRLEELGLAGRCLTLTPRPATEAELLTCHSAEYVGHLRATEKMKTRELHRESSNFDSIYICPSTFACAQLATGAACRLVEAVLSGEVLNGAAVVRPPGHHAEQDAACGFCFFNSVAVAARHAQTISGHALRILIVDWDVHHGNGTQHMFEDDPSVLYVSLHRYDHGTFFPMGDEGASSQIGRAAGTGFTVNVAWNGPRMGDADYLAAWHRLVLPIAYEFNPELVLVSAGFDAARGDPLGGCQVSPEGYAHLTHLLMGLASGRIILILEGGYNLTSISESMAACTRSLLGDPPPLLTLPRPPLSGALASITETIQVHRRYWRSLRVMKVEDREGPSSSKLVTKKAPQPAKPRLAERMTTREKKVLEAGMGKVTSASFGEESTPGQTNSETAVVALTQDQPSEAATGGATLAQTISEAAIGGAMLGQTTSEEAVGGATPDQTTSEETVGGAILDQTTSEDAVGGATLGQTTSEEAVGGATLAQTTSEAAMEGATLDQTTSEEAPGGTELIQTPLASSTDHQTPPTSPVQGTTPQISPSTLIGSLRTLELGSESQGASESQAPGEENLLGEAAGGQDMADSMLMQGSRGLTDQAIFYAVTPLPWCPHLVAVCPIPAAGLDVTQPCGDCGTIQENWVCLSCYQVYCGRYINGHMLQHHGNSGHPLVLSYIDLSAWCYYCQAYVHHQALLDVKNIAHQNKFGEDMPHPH
Briefly: In vitro HDAC6 inhibition, fluorogenic peptide assay. In kind it is biochemical. The conditions noted are these: read-out: IC50 (nM) of enzyme activity HDAC6. As to the method:
All HDAC assays were performed using acetylated AMC-labeled peptide substrate: • Substrate for isoforms HDAC1, 2, 3, 4, 5, 6, 7, 9, 10, 11 and HeLa nuclear extract assays: Acetylated fluorogenic peptide from p53 residues 379-382 (RHKKAc) (BioMol. Cat. # KI-104). • Substrate for HDAC8 assays: Acetylated fluorogenic peptide from p53 residues 379-382 (RHKAcKAc) (BioMol. Cat. # KI-178).
Enzymes: • HDAC1 assay: 75 nM Human HDAC1 (GenBank Accession No. NM_004964): Full length with C-terminal GST tag, MW=79.9 kDa, expressed by baculovirus expression system in Sf9 cells (BioMol. Cat. # SE-456). • HDAC2 assay: 5 nM Human HDAC2 (GenBank Accession No. Q92769): Full length with C-terminal His tag, MW=60 kDa, expressed by baculovirus expression system in Sf9 cells (BioMol. Cat. # SE-500). • HDAC3 assay: 2.3 nM Human HDAC3/NcoR2 (GenBank Accession No. NM_003883 for HDAC3, GenBank Accession No.NM_006312 for NcoR2): Complex of human HDAC3, full length with C-terminal His tag, MW=49.7 kDa, and human NCOR2, N-terminal GST tag, MW=39 kDa, co-expressed in baculovirus expression system (BioMol. Cat. # SE-507). • HDAC4 assay: 266 nM Human HDAC4 (GenBank Accession No. NM_006037): Amino acids 627-1085 with N-terminal GST tag, MW=75.2 kDa, expressed in baculovirus expression system (BioMol, Hamburg, Germany). • HDAC5 assay: 588 nM Human HDAC5 (GenBank Accession No. NM_001015053): Full length with Nterminal GST tag, MW=150 kDa, expressed by baculovirus expression system in Sf9 cells (BioMol, Hamburg, Germany). • HDAC6 assay: 13 nM Human HDAC6 (GenBank Accession No. BC069243): Full length with N-terminal GST tag, MW=159 kDa, expressed by baculovirus expression system in Sf9 cells (BioMol. Cat. # SE-508). • HDAC7 assay: 962 nM Human HDAC7 (GenBank Accession No. AY302468): Amino acids 518-end with N-terminal GST tag, MW=78 kDa, expressed in baculovirus expression system (BioMol, Hamburg, Germany). • HDAC8 assay: 119 nM Human HDAC8 (GenBank Accession No. NM018486): Full length, MW=42 kDa, expressed in an E. coli expression system (BioMol. Cat. # SE-145). • HDAC9 assay: 986 nM Human HDAC9 (GenBank Accession No. NM178423): Amino acids 604-1066 with C-terminal His tag, MW=50.7 kDa, expressed in baculovirus expression system (BioMol, Hamburg, Germany). • HDAC10 assay: 781 nM Human HDAC10 (GenBank Accession No. NM_032019): Amino acids 1-631 with Nterminal GST tag, MW=96 kDa, expressed by baculovirus expression system in Sf9 cells (BioMol. Cat. # SE-559). • HDAC11 assay: 781 nM Human HDAC11 (GenBank Accession No. NM_BC009676) with N-terminal GST tag, MW=66 kDa, expressed in baculovirus expression system (BioMol. Cat. # SE-560). • HeLaNuclear Extract assay: 25 ng/μl Nuclear Extract from HeLa Cells: Prepared by high salt extraction of HeLa nuclei (human cervical cancer cell line), this extract is a rich source of HDAC activity (BioMol. Cat. # KI-140).
The reactions were carried out in a 96-well microplate for fluorometry in a 50 μl reaction volume. After the deacetylation reaction, Fluor-de-Lys-Developer (BioMol Cat. # KI-105) was added to each well to digest the deacetylated substrate, thus producing the fluorescent signal. The reaction was allowed to develop for 45 minutes at 30° C. with 5% CO2; then the fluorescent signal was measured with an excitation wavelength at 360 nm and an emission wavelength at 460 nm in a microplate-reading fluorometer (GeminiXS; Molecular Devices, Sunnyvale, Calif.). […] All experiments were performed in triplicate. IC50 was calculated by fitting the experimental data to a dose-response curve. DMSO was used as negative control; Trichostatin A (Biomol Cat. # GR-309) was used as positive control inhibitor.

The structures appear in SMILES notation.

The IC50 is the midpoint of a concentration-inhibition curve. On to `COc1ccc(-c2cc(-c3ccccc3)[nH]c2C(=O)NCCCCCC(=O)NO)cc1` [Compound A, N-[6-(hydroxyamino)-6-oxohexyl]-3-(4-methoxyphenyl)-5-phenyl-1H-pyrrole-2-carboxamide, reference compound], for which the IC50 is 20 nM.

Take `COc1ccc(-c2cc(-c3ccccc3)c(C(=O)NCCCCCC(=O)NO)[nH]2)cc1` [Compound B, N-[6-(hydroxyamino)-6-oxohexyl]-5-(4-methoxyphenyl)-3-phenyl-1H-pyrrole-2-carboxamide, reference compound]: the IC50 was 32 nM.

Regarding `O=C(CCCCCNC(=O)c1[nH]c(-c2ccccc2)cc1-c1ccc(O)cc1)NO` [Example 1, N-(6-(hydroxyamino)-6-oxohexyl)-3-(4-hydroxyphenyl)-5-phenyl-1H-pyrrole-2-carboxamide], the IC50 came out at 14 nM.

`O=C(CCCCCNC(=O)c1[nH]c(-c2ccc(O)cc2)cc1-c1ccccc1)NO` [Example 2, N-(6-(hydroxyamino)-6-oxohexyl)-5-(4-hydroxyphenyl)-3-phenyl-1H-pyrrole-2-carboxamide]: the IC50 was 7.6 nM.

For the compound `O=C(CCCCCNC(=O)c1[nH]c(-c2ccsc2)cc1-c1ccc(O)cc1)NO` [Example 3, N-(5-(hydroxycarbamoyl)pentyl)-3-(4-hydroxyphenyl)-5-(3-thienyl)-1H-pyrrole-2-carboxamide], the IC50 came out at 12 nM.

On to `O=C(CCCCCNC(=O)c1[nH]c(-c2ccoc2)cc1-c1ccc(O)cc1)NO` [Example 4, 5-(3-furyl)-N-(5-(Hydroxycarbamoyl)pentyl)-3-(4-hydroxy-phenyl)-1H-pyrrole-2-carboxamide], for which the IC50 was 9.3 nM.

On to `O=C(CCCCCNC(=O)c1[nH]c(-c2ccc(O)cc2)cc1-c1ccoc1)NO` [Example 5, 3-(3-furyl)-N-(5-(hydroxycarbamoyl)pentyl)-5-(4-hydroxy-phenyl)-1H-pyrrole-2-carboxamide], for which the IC50 is 0.6 nM.

For `O=C(CCCCCNC(=O)c1[nH]c(-c2ccc(O)cc2)cc1-c1ccsc1)NO` [Example 6, N-(5-(hydroxycarbamoyl)pentyl)-5-(4-hydroxyphenyl)-3-(3-thienyl)-1H-pyrrole-2-carboxamide], the IC50 worked out at 1.6 nM.
